“And” between values parts separate entries of the source, which are not always exact repeats. Equal entries are not always repeated. After the bases stand the sugars from the 5' end (letter, count) and the backbone: PS all phosphorothioate, else s phosphorothioate and o phosphodiester by linkage. Methylation of C is not given here. e = 2'-O-(2-methoxyethyl) (MOE); k = constrained ethyl (cEt); d = 2'-deoxy (DNA)

The target of one data set is IRF5. The settings on record: ASO, A-431, 0.00412 µM.
“CTGATATGATACCTAA (sugars k3 d1 k1 d8 k3, PS)” displayed a target mRNA inhibition of 20%.

Staying with this data set, now noted: ASO, A-431, 0.01225 µM.
With “CTGATATGATACCTAA (sugars k3 d1 k1 d8 k3, PS)”, the target mRNA inhibition is 29%.

Still in this data set, the particulars now being: ASO, A-431, 0.03704 µM.
In turn, “CTGATATGATACCTAA (sugars k3 d1 k1 d8 k3, PS)” returned a target mRNA inhibition of 38%.

Still in this data set, the particulars now being: ASO, A-431, 0.11111 µM.
In turn, “CTGATATGATACCTAA (sugars k3 d1 k1 d8 k3, PS)” returned a target mRNA inhibition of 64%.

The same data set, now with this note: ASO, A-431, 0.33333 µM.
Sequence “CTGATATGATACCTAA (sugars k3 d1 k1 d8 k3, PS)” registered a target mRNA inhibition of 83%.

The data set is the same for the next values; noted with them: ASO, A-431, 1 µM.
“CTGATATGATACCTAA (sugars k3 d1 k1 d8 k3, PS)” came in with a target mRNA inhibition of 83%.

Staying with this data set, now noted: ASO, KARPAS-229, 0.44444 µM.
CCAATTTTGCATTCCA (sugars k3 d10 k3, PS) returned a target mRNA inhibition of 51%.
On the same count and under the same terms, in the case of “CCATTCTATGCCTTTT (sugars kkddddddddddkeke, PS)” it was 37%.

The same data set, now with this note: ASO, KARPAS-229, 1.33333 µM.
Regarding CCAATTTTGCATTCCA (sugars k3 d10 k3, PS), the target mRNA inhibition turned out to be 74%.
Same read-out and setting: in the case of “CCATTCTATGCCTTTT (sugars kkddddddddddkeke, PS)” it was 45%.

Still in this data set, the particulars now being: ASO, KARPAS-229, 4 µM.
As for “ATGAGTCATGGGCTGA (sugars k3 d9 k3 e1, PS)”, the target mRNA inhibition is 20%.
“ATGAGTCATGGGCTGA (sugars kddddddddddkekek, PS)” registered a target mRNA inhibition of 0%.
On the same count and under the same terms, in the case of “ATGAGTCATGGGCTGA (sugars kkddddddddddkeke, PS)” it was 0%; in that of “ATGAGTCATGGGCTGA (sugars kkdddddddddkekek, PS)”, 0%.
Still for that read-out and setting: the result for “ATGGTGTTATCTCCGT (sugars kdddddddddkekeke, PS)” reads 0%; that for ATTCCAATTTTGCATT (sugars k3 d10 k3, PS), 21%; that for “ATTTCTGCTCCAGGTT (sugars kdddddddddkekeke, PS)”, 13%.
As for “ATTTCTGCTCCAGGTT (sugars kkddddddddkekekk, PS)”, the target mRNA inhibition stood at 6%.
As to ATTTGCCTTCTGCAGG (sugars k3 d10 k3, PS), the target mRNA inhibition was 0%.
The sequence ATTTTGTGACTGTATT (sugars k3 d10 k3, PS) displayed a target mRNA inhibition of 4%.
Regarding “CAATTTTGCATTCCAT (sugars kkddddddddkekekk, PS)”, the target mRNA inhibition turned out to be 32%.
“CACATCTCCACATCAG (sugars kddddddddddkekek, PS)” came in with a target mRNA inhibition of 15%.
Take “CACATCTCCACATCAG (sugars kkdddddddddkekek, PS)”: the target mRNA inhibition stood at 22%.
Same read-out and setting: the result for “CACCACTGTGTACCCC (sugars kdddddddddkekeke, PS)” reads 0%.
Same read-out and setting: in the case of CACTGACACAGGCGGA (sugars k3 d10 k3, PS) it was 1% and 0%; in that of “CACTGACACAGGCGGA (sugars kekdddddddddeekk, PS)”, 0%; in that of “CACTGACACAGGCGGA (sugars kkddddddddkekekk, PS)”, 0%.
For the sequence CACTTGATTCCAATTT (sugars k3 d10 k3, PS), the target mRNA inhibition stood at 36%.
Still for that read-out and setting: the result for “CAGGTTCTTGGACTCT (sugars kkddddddddkekekk, PS)” reads 0%.
The same measure, in the same setting: in the case of “CAGGTTCTTGGACTCT (sugars kkkddddddddkekek, PS)” it was 0%; in that of “CATCTCCACATCAGTC (sugars kdddddddddkekeke, PS)”, 32%.
On the same count and under the same terms, the result for “CATTCCATATACACAC (sugars kddddddddddkekek, PS)” reads 31%; that for “CATTCCATATACACAC (sugars kkdddddddddkdkdk, PS)”, 25%; that for “CCAATGCAACATCCAT (sugars k2 d9 e3 k2, PS)”, 0%.
Regarding CCAATGCAACATCCAT (sugars k3 d10 k3, PS), the target mRNA inhibition stood at 0%.
The same measure, in the same setting: in the case of “CCAATTTTGCATTCCA (sugars k2 d8 e4 k2, PS)” it was 48%; in that of CCAATTTTGCATTCCA (sugars k3 d10 k3, PS), 78% and 83%.
Still for that read-out and setting: the result for “CCACTGTGTACCCCAT (sugars kkddddddddkekekk, PS)” reads 0%; that for “CCATTCTATGCCTTTT (sugars kkddddddddddkeke, PS)”, 61% and 62%; that for “CCATTCTATGCCTTTT (sugars kkdddddddddkdkdk, PS)”, 46%.
For the sequence “CCATTCTATGCCTTTT (sugars kkddddddddkekekk, PS)”, the target mRNA inhibition is 3%.
Same read-out and setting: the result for “CCATTCTATGCCTTTT (sugars kkkddddddddkekek, PS)” reads 44%; that for CCCAATGCAACATCCA (sugars k3 d10 k3, PS), 12%.
On the same count and under the same terms, the result for “CCCAATGCAACATCCA (sugars kkkddddddddkdkdk, PS)” reads 0%; that for “CCTTCTGCAGGGAGTC (sugars k3 d9 k3 e1, PS)”, 0%.
On the same count and under the same terms, in the case of CCTTCTGCAGGGAGTC (sugars k3 d10 k3, PS) it was 0%.
Regarding “CCTTCTGCAGGGAGTC (sugars kkddddddddddkeke, PS)”, the target mRNA inhibition is 0%.
On the same count and under the same terms, in the case of “CGGTCTTTGAGGTCTG (sugars kddddddddddkekek, PS)” it was 68%; in that of CTAGTGTCATGGAATT (sugars k3 d10 k3, PS), 34%.
Consider “CTGACACAGGCGGATG (sugars kdddddddddkekeke, PS)”, for which the target mRNA inhibition stood at 0%.
Still for that read-out and setting: in the case of “CTGACACAGGCGGATG (sugars kkddddddddkekekk, PS)” it was 0%.
Still for that read-out and setting: the result for “CTGTCACATCTCCACA (sugars kkddddddddkekekk, PS)” reads 0%.
Same read-out and setting: in the case of “CTTCTGCAGGGAGTCA (sugars k3 d9 k3 e1, PS)” it was 0%; in that of “CTTCTGCAGGGAGTCA (sugars kkdddddddddkdkdk, PS)”, 0%; in that of “CTTCTGCAGGGAGTCA (sugars kkkddddddddkekek, PS)”, 0%.
Sequence CTTGATTCCAATTTTG (sugars k3 d10 k3, PS) registered a target mRNA inhibition of 20%.
Still for that read-out and setting: the result for “CTTGGTCTTGACCTCC (sugars k2 d8 e4 k2, PS)” reads 20%; that for “CTTGGTCTTGACCTCC (sugars k3 d9 k3 e1, PS)”, 6%; that for “CTTGGTCTTGACCTCC (sugars kkddddddddddkeke, PS)”, 39%.
Sequence “CTTGGTCTTGACCTCC (sugars kkdddddddddkdkdk, PS)” gave a target mRNA inhibition of 13%.
The same measure, in the same setting: the result for “CTTGGTCTTGACCTCC (sugars kkdddddddddkekek, PS)” reads 3%.
Same read-out and setting: in the case of “CTTGGTCTTGACCTCC (sugars kkddddddddkekekk, PS)” it was 0%; in that of “CTTGGTCTTGACCTCC (sugars kkkddddddddkdkdk, PS)”, 19%; in that of “CTTGGTCTTGACCTCC (sugars kkkddddddddkekek, PS)”, 1%.
On the same count and under the same terms, in the case of GAGACGAGCAAAGGGT (sugars k3 d10 k3, PS) it was 40%.
The sequence GAGCAAAGGGTGAGTA (sugars k3 d10 k3, PS) registered a target mRNA inhibition of 0%.
On to GAGTAATAGGAGTGAG (sugars k3 d10 k3, PS), for which the target mRNA inhibition turned out to be 33%.
On the same count and under the same terms, the result for “GAGTCATGGGCTGAGG (sugars k2 d8 e4 k2, PS)” reads 5%.
“GAGTCATGGGCTGAGG (sugars k2 d9 e3 k2, PS)” returned a target mRNA inhibition of 30%.
Still for that read-out and setting: the result for “GAGTCATGGGCTGAGG (sugars kddddddddddkekek, PS)” reads 0%; that for “GAGTCATGGGCTGAGG (sugars kkdddddddddkdkdk, PS)”, 31%.
On the same count and under the same terms, in the case of “GAGTCTCAAACCAGGG (sugars kdddddddddkekeke, PS)” it was 6%; in that of “GAGTGAGACGAGCAAA (sugars kddddddddddkekek, PS)”, 18%.
Still for that read-out and setting: the result for “GAGTGAGACGAGCAAA (sugars kdddddddddkekeke, PS)” reads 6%; that for “GATGGTGTTATCTCCG (sugars kkddddddddddkeke, PS)”, 0%.
As for “GCATTCCATATACACA (sugars kdddddddddkekeke, PS)”, the target mRNA inhibition turned out to be 34%.
“GCATTCCATATACACA (sugars kkddddddddkekekk, PS)” came in with a target mRNA inhibition of 0%.
Still for that read-out and setting: in the case of GCTGTCACATCTCCAC (sugars k3 d10 k3, PS) it was 33%.
“GCTTGGTCTTGACCTC (sugars k2 d8 e4 k2, PS)” showed a target mRNA inhibition of 19%.
Still for that read-out and setting: the result for “GCTTGGTCTTGACCTC (sugars kddddddddddkekek, PS)” reads 18%; that for “GCTTGGTCTTGACCTC (sugars kkddddddddddkeke, PS)”, 9%; that for “GCTTGGTCTTGACCTC (sugars kkkddddddddkdkdk, PS)”, 30%.
The same measure, in the same setting: the result for “GGAAGTGAGTCTCAAA (sugars kkdddddddddkekek, PS)” reads 25%; that for “GGAAGTGAGTCTCAAA (sugars kkkddddddddkekek, PS)”, 45%.
Same read-out and setting: in the case of GGAGTGAGACGAGCAA (sugars k3 d10 k3, PS) it was 37%; in that of “GGAGTGAGACGAGCAA (sugars kkdddddddddkekek, PS)”, 27%.
“GGAGTGAGACGAGCAA (sugars kkkddddddddkekek, PS)”: the target mRNA inhibition was found to be 5%.
Same read-out and setting: in the case of GGGAGTCAGACCTACC (sugars k3 d10 k3, PS) it was 0%; in that of “GGGCACAGCGCAGGTT (sugars kdddddddddkekeke, PS)”, 33%; in that of “GGTCTGGCCCTTTTGG (sugars kddddddddddkekek, PS)”, 0%.
As to “GGTCTGGCCCTTTTGG (sugars kdddddddddkekeke, PS)”, the target mRNA inhibition came out at 0%.
Still for that read-out and setting: in the case of “GGTCTGGCCCTTTTGG (sugars kkddddddddddkeke, PS)” it was 0%; in that of “GGTCTTGACCTCCCGC (sugars kddddddddddkekek, PS)”, 37%.
The same measure, in the same setting: the result for “GGTCTTTGAGGTCTGG (sugars k2 d8 e4 k2, PS)” reads 56%.

Staying with this data set, now noted: ASO, KARPAS-229, 12 µM.
In turn, CCAATTTTGCATTCCA (sugars k3 d10 k3, PS) came in with a target mRNA inhibition of 89%.
With “CCATTCTATGCCTTTT (sugars kkddddddddddkeke, PS)”, the target mRNA inhibition turned out to be 73%.

The values above are taken from the OligoGym collection.
